Test results: ChEMBL document CHEMBL1811778, “The discovery and development of inhibitors of fatty acid amide hydrolase (FAAH)” (Bioorg Med Chem Lett, 2011)

Experiments:
[1] = target: T1, Fatty-acid amide hydrolase 1 (Homo sapiens, UniProt O00519); experiment: Reversible inhibition of human FAAH
T1 sequence (O00519 whole entry): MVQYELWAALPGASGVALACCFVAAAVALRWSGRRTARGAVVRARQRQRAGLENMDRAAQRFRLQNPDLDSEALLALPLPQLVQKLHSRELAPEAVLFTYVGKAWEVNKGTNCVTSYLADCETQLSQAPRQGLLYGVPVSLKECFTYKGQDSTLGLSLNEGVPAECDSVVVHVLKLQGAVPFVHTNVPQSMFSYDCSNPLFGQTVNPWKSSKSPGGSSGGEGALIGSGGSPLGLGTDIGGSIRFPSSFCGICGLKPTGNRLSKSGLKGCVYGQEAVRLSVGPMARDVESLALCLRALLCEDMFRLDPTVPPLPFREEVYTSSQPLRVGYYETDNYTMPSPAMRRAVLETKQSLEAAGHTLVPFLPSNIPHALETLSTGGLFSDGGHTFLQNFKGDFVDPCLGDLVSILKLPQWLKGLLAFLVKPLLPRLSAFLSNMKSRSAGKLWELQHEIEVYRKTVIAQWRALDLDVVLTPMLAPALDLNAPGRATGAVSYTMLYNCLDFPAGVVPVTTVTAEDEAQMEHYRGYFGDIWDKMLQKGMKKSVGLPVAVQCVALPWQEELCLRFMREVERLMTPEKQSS

[2] = target: T1, Fatty-acid amide hydrolase 1; experiment: Inhibition of FAAH
[3] = target: T2, Fatty-acid amide hydrolase 1 (Rattus norvegicus, UniProt P97612); experiment: Inhibition of rat FAAH assessed as conversion [14]C-oleamide to oleic acid
T2 sequence (P97612 whole entry): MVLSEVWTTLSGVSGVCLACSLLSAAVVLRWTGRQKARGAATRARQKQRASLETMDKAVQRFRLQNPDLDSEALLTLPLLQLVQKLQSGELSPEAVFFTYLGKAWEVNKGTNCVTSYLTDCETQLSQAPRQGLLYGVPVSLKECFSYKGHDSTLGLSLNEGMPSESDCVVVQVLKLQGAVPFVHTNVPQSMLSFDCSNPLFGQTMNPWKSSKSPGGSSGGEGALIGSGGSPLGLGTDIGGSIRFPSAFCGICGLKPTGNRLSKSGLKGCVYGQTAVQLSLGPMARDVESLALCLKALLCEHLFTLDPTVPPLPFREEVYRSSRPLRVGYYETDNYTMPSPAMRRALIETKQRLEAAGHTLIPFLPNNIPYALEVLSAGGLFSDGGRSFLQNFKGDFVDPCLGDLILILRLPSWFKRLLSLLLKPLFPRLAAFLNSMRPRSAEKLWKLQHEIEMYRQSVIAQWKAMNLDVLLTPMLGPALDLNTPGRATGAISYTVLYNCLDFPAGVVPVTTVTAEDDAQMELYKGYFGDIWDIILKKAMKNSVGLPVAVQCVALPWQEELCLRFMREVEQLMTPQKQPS

Rattus norvegicus = experiment: In vivo inhibition of rat FAAH at 0.3 mg/kg, ip after 16 hrs; type: functional; details: route intraperitoneal

| SMILES | Ki [2] | also measured |
| --- | --- | --- |
| CCn1c(=O)n(C2CCCN(c3nccc(-c4cc5ccccc5o4)n3)C2)c2ccccc21 (configuration not stated) |  | IC50 [1]: 10 nM |
| O=C(CCCCCCc1ccccc1)c1ncc(-c2cnccn2)o1 | 5.3 nM |  |
| CCCCCCCC/C=C\CCCCCCC=O | 40 nM |  |
| CCCCCCCC/C=C\CCCCCCC(=O)C(N)=O | 16 nM |  |
| CCCCCCCC/C=C\CCCCCCC(=O)C(=O)OCC | 1.4 nM |  |
| CCCCCCCC/C=C\CCCCCCC(=O)C(F)(F)F | 2 nM |  |
| CCCCCCCC/C=C\CCCCCCCC(=O)c1nccn1C |  | Ki [3]: > 100000 nM |
| CCCCCCCC/C=C\CCCCCCCC(=O)C1=NCCO1 |  | Ki [3]: 4500 nM |
| CCCCCCCC/C=C\CCCCCCCC(=O)c1nc2cnccc2o1 |  | Ki [3]: 7.2 nM |
| CCCCCCCC/C=C\CCCCCCCC(=O)c1nc2cccnc2o1 |  | Ki [3]: 11 nM |
| O=C(CCCCCCc1ccccc1)c1ncc(-c2cscn2)o1 | 5.8 nM |  |
| CCN(CC)S(=O)(=O)N1CCc2c(ccnc2Nc2cnc3ccccc3c2)C1 |  | IC50 [1]: < 100 nM |
| CCn1ccc2cc(-c3ccc4oc(N5Cc6ccccc6C5)nc4c3)ccc21 |  | IC50 [1]: 1.3 nM |
| O=C(N1CCN(c2cccc(C(F)(F)F)c2)CC1)n1nnc2ccc(-c3ccc(Cl)cc3)nc21 |  | IC50 [2]: 2 nM |
| CN(CCCCCl)C(=O)n1cnc(-c2ccccc2)c1 |  | IC50 [2]: 78 nM |
| COc1ccc(N2CCN(C(=O)n3nnc4ccc(N5CCCC5)nc43)CC2)cc1 |  | IC50 [2]: 1 nM |
| O=C(N1CCC(Oc2ccc(OCc3cccc(F)c3)cc2)CC1)n1ccnc1 |  | IC50 [2]: 0.093 nM |
| O=C(CCCCCCc1ccccc1)c1ncc(-c2cocn2)o1 | 4.6 nM |  |
| O=C(CCCCCCc1ccccc1)c1ncc(-c2cccnn2)o1 | 5.6 nM |  |
| O=C(CCCCCCc1ccccc1)c1ncc(-c2ncccn2)o1 | 4.6 nM |  |
| Cc1ccc2nc(-c3ccc(NC(=O)C4CCN(S(=O)(=O)c5cccs5)CC4)cc3)sc2c1 |  | IC50 [2]: 18 nM |
| NC(=O)c1cccc(-c2cccc(OC(=O)NC3CCCCC3)c2)c1 [URB-597] |  | inhibition in vivo at 0.3 mg/kg (Rattus norvegicus): 70% |

Second part, led by results:

| Ki [2] | SMILES | also measured |
| --- | --- | --- |
| 11 nM | CCCCCCCCCCCCCCCCCC(=O)c1nc2ncccc2o1 |  |
| 1.9 nM | CCCCCCCCCCCCCCCC(=O)c1nc2ncccc2o1 |  |
| 1.7 nM | CCCCCCCCCCCCCC(=O)c1nc2ncccc2o1 |  |
| 0.75 nM | CCCCCCCCCC(=O)c1nc2ncccc2o1 |  |
| 2.1 nM | CCCCCCC(=O)c1nc2ncccc2o1 |  |
| 15 nM | CCCCCC(=O)c1nc2ncccc2o1 |  |
| > 100000 nM | CC(=O)c1nc2ncccc2o1 |  |
| 0.69 nM | CCCCCCCC(=O)c1nc2ncccc2o1 |  |
| 0.57 nM | CCCCCCCCCCCC(=O)c1nc2ncccc2o1 |  |
| 50 nM | CCCCC(=O)c1nc2ncccc2o1 |  |
